Results reported in patent publication US4965280A, “Antifungal carbinols” (E. I. Du Pont de Nemours and Company, priority 1989, dated 1990).
Values after ≈ are worked out from the molar mass of the structure shown. Like-named read-outs stand apart in the source and are kept apart here.

Legend:
[1] = system: Candida albicans ATCC 11651; experiment: In vivo systemic Candida infection in mice, primary assay; design: species or system Candida albicans; CF-1 female mice; conditions: Candida albicans, 150 mg/kg per day, read-out: % Survival
In short: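 CF-1 female mice (20 g, 10 per group) were infected IV with 0.2 ml of 1×10^7/ml C. albicans ATCC 11651, then given test compound subcutaneously at 50 or 150 mg/kg/day at 1 and 6 h post-infection and once daily for three more days. Survival was followed for 21 days against infected untreated mice; ≥70% protection at 14 days was scored active.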

[2] = system: Venturia inaequalis; experiment: Example A apple scab; format: in vivo; conditions: read-out: disease control rating, Ex. A
In short: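 Spray application to run-off on apple seedlings; compound at 100 or 20 ppm in water with 250 ppm TREM 014 (polyhydric alcohol esters) and 6% acetone of final volume.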

[3] = system: Cercosporidium personatum; experiment: Example B Peanut Late Leafspot; format: in vivo; conditions: Nothopassalora personata, read-out: disease control rating, Ex. B
In short: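 Spray suspensions at 100 or 20 ppm, prepared from acetone solutions (acetone 6% of final volume) in water carrying 250 ppm of a polyhydric alcohol ester surfactant, were applied to peanut seedlings until run-off.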

[4] = system: Botrytis cinerea; experiment: Example C bean grey mold; format: in vivo; conditions: Botrytis cinerea, 24 h, read-out: disease control rating, Ex. C
In short: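 Spray rates: 100 and 20 ppm. Vehicle: purified water with 6% acetone by final volume plus 250 ppm TREM 014 (polyhydric alcohol esters). Host plants, broad bean seedlings, were wetted until run-off.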

[5] = system: Erysiphe graminis f. sp. tritici; experiment: Example D wheat powdery mildew; format: in vivo; conditions: Blumeria graminis, 144 h, read-out: disease control rating, Ex. D
In short: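 Seedling wheat was treated by spraying to run-off; formulation used acetone as co-solvent (6% final) and TREM 014 surfactant at 250 ppm, with compound at 100 or 20 ppm.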

[6] = system: Pyricularia oryzae; experiment: whole plant or invertebrate; format: in vivo; conditions: Pyricularia oryzae, 120 h; for pest or weed control at 100 ppm: read-out: disease control rating, Ex. E, 100 PPM
[7] = system: Rhizoctonia solani; experiment: Example F rice sheath blight; format: in vivo; conditions: Rhizoctonia solani, 144 h, read-out: disease control rating, Ex. F
In short: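 Foliar run-off spray, rice seedlings: compound at 100 or 20 ppm in aqueous 250 ppm polyhydric alcohol ester surfactant, acetone 6% v/v final.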

[8] = system: Puccinia recondita; experiment: Example G wheat leaf rust; format: in vivo; conditions: read-out: disease control rating, Ex. G
[9] = system: Phytophthora infestans; experiment: whole plant or invertebrate; format: in vivo; conditions: Phytophthora infestans, in Solanum lycopersicum, read-out: disease control rating, Ex. H, 100 PPM
[10] = system: Plasmorpara viticola; experiment: Example I grape downy mildew; format: in vivo; conditions: read-out: disease control rating, Ex. I
In short: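 First, each compound is taken up in acetone amounting to 6% of the final volume. It is then suspended in purified water containing 250 ppm of the polyhydric alcohol ester surfactant TREM 014, at 100 or 20 ppm. Finally, the suspension is sprayed onto grape seedlings until run-off.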

[11] = system: Pythium aphanadermatum; experiment: Example J cucumber damping off; format: in vivo; conditions: Pythium, 336 h; 5 kg/ha; read-out: disease control rating, Ex. J
In short: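 Seeds and soil were inoculated with a mix of sand, cereal and Pythium aphanadermatum mycelium, the fungus responsible for cucumber damping off. They were kept in a growth chamber at 30° C. for 14 days, and disease was then rated to assess control.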

[12] = system: Rhizoctonia solani; experiment: Example K cotton blight; format: in vivo; conditions: 336 h, 5 kg/ha, read-out: disease control rating, Ex. K
Experimental: […] Seeds and soil were then inoculated with a mixture of sand, cereal and mycelium of the fungus Rhizoctonia solani, causal agent of cotton blight, and incubated in a growth chamber at 30° C. for 14 days. Disease ratings were then made.

[13] = system: Fusarium oxysporum f. sp. cucumerinum; experiment: Example L cucumber wilt; format: in vivo; conditions: 336 h, 5 kg/ha, read-out: disease control rating, Ex. L
Experimental: […] Seeds and soil were then inoculated with a mixture of sand, cereal and mycelium of the fungus Fusarium oxysporum f. sp. cucumerinum, causal agent of cucumber wilt, and incubated in a growth chamber at 30° C. for 14 days. Disease ratings were then made.

[14] = system: Sclerotium rolfsii; experiment: Example M southern blight; format: in vivo; conditions: Agroathelia rolfsii, 336 h; 5 kg/ha; read-out: disease control rating, Ex. M
Experimental: […] Seeds and soil were then inoculated with a mixture of sand, cereal and mycelium of the fungus Sclerotium rolfsii, causal agent of sourthern blight, and incubated in a growth chamber at 30° C. for 14 days. Disease ratings were then made.

[15] = system: Candida albicans ATCC 11651; experiment: In vitro antifungal MIC, microtiter broth dilution; conditions: Candida albicans, ATCC11651, 24 h, read-out: MIC values, C. albicans, 30°, 24 hours
[16] = system: Aspergillus fumigatus ATCC 28214; experiment: In vitro antifungal MIC, microtiter broth dilution; conditions: Aspergillus fumigatus, ATCC28214, 24 h, read-out: MIC values, A. fumigatus, 30°, 24 hours
Experimental: In vitro activity (Table 5) is expressed in terms of the minimal inhibitory concentration (MIC) of the test compound which inhibits the growth of yeasts and fungi.
The target organisms, Candida albicans ATCC 11651 and Aspergillus fumigatus ATCC 28214 are standardized, [V. Bezjak, J. Clinical Micro., 21 509-512 (1984)], to a concentration of 10^7 organisms/ml and maintained at -70° until use. Test compounds are solubilized in dimethyl sulfoxide (DMSO) and diluted in Eagle's Minimum Essential Medium (EMEM) broth to achieve a final concentration of 200 μg/ml. Stock solutions of standard antifungal agents are stored at -70° and diluted in EMEM as required.
The in vitro assay utilizes a microtiter broth dilution technique [L. Polonelli and G. Morace, Mycopathologia, 86, 21-28 (1984)] and C. […] The appropriate wells are inoculated with the required organism (C. albicans at 1×10^4 organisms/ml and A. fumigatus at 5×10^5 organisms/ml) and the assay incubated at 30° for 24 hours.

| SMILES | responders at 150 mg/kg ([1]; ATCC11651, 168 h, day 7) [%] | responders at 150 mg/kg ([1]; ATCC11651, 336 h, day 14) [%] | responders at 150 mg/kg ([1]; ATCC11651, 504 h, day 21) [%] | pest or weed control at 100 ppm [2] [%] | pest or weed control at 100 ppm [3] [%] | pest or weed control at 100 ppm [4] [%] | pest or weed control at 100 ppm [5] [%] | pest or weed control at 100 ppm [6] [%] | pest or weed control at 100 ppm [7] [%] | pest or weed control at 100 ppm [8] [%] | pest or weed control at 100 ppm [9] [%] | pest or weed control at 100 ppm [10] [%] | pest or weed control at 5000 g/ha [11] [%] | pest or weed control at 5000 g/ha [12] [%] | pest or weed control at 5000 g/ha [13] [%] | pest or weed control at 5000 g/ha [14] [%] | MIC [15] [µg/mL] | MIC [16] [µg/mL] | other results |
| --- | --- | --- | --- | --- | --- | --- | --- | --- | --- | --- | --- | --- | --- | --- | --- | --- | --- | --- | --- |
| C=C(c1ccc(Cl)cc1)C(O)(Cn1cncn1)c1ccc(Cl)cc1 (stereo not shown) [Example 27] | 100 | 100 | 100 | 62 | 100 | 88 | 98 | 95 | 100 | 100 | 24 | 84 | 0 | 0 | 0 | 0 | ≤ 0.4 | 12.5 (≈ 34.7 µM) | – |
| C=C(c1cccc(Cl)c1)C(O)(Cn1cncn1)c1ccc(Cl)c(Cl)c1 (stereo not shown) [Example 905] | 80 | 50 | 20 | – | – | 19 | – | 0 | 37 | – | 0 | 87 | 0 | 0 | 0 | 0 | 0.04 (≈ 0.101 µM) | 100 (≈ 253 µM) | pest or weed control at 20 ppm ([2]; 20 PPM): 7%; pest or weed control at 20 ppm ([3]; 20 PPM): 0%; pest or weed control at 20 ppm ([4]; 20 PPM): 15%; pest or weed control at 20 ppm ([5]; 20 PPM): 47%; pest or weed control at 20 ppm ([6]; read-out: disease control rating, Ex. E, 20 PPM): 0%; pest or weed control at 20 ppm ([7]; 20 PPM): 0%; pest or weed control at 20 ppm ([8]; 20 PPM): 16% |
| C=C(c1cccc2ccccc12)C(O)(Cn1cncn1)c1ccc(F)cc1 (stereo not shown) [Example 208] | 0 | 0 | 0 | 84 | 37 | 83 | 76 | 4 | 61 | 97 | 0 | 74 | 0 | 0 | 0 | 0 | 1.6 (≈ 4.45 µM) | 50 (≈ 139 µM) | – |
| C=C(c1cccc(Cl)c1)C(O)(Cn1cncn1)c1ccc(Cl)cc1 (stereo not shown) [Example 41] | 100 | 100 | – | 100 | 100 | 96 | 98 | 7 | 97 | 100 | 0 | 100 | 0 | 0 | 0 | 0 | 0.4 (≈ 1.11 µM) | 50 (≈ 139 µM) | – |
| C=C(c1cccc(Cl)c1)C(O)(Cn1cncn1)c1ccc(Cl)cc1Cl (stereo not shown) [Example 40, 2-(2,4-Dichlorophenyl)-3-(3-chlorophenyl)-1-(1H-1,2,4-triazol-1-yl)-3-buten-2-ol] | 100 | 100 | – | 19 | 100 | 80 | 91 | 7 | 61 | 96 | 0 | 0 | 0 | 0 | 0 | 0 | 0.4 (≈ 1.01 µM) | 3.2 (≈ 8.11 µM) | – |
